The target of one assay is T1, human secreted PLA2 (Homo sapiens, UniProt P14555).
T1 sequence (P14555 21-144): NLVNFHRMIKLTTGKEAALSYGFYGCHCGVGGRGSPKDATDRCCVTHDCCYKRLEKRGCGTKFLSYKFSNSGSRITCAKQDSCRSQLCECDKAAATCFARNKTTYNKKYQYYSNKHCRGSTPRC
As to the kind of experiment: chromogenic assay of recombinant human secreted phospholipase A2 inhibition (Assay Example 1). Particulars: mean of 3-5 tests; 40° C., 30 minutes, pH 7.5, 405 nanometers; read-out: Inhibition of human secreted PLA2 IC50 ± mean deviation (3-5 tests). The format is biochemical. An excerpt:
The assay described herein has been adapted for high volume screening using 96 well microtiter plates. A general description of this assay method is found in the article, "Analysis of Human Synovial Fluid Phospholipase A2 on Short Chain Phosphatidylcholine-Mixed Micelles: Development of a Spectrophotometric Assay Suitable for a Microtiterplate Reader", by Laure J. Reynolds, Lori L. […] Reagents, the disclosure of which is incorporated herein by reference. REACTION BUFFER CaCl2.2H20 (1.47 g/L) KCl (7.455 g/L) Bovine Serum Albumin (fatty acid free) (1 g/L) (Sigma A-7030, product of Sigma Chemical Co. St. Louis Mo., USA) TRIS HCl (3.94 g/L) pH 7.5 (adjust with NaOH) ENZYME BUFFER […] 0.2 NaCl Adjust pH to 4.5 with acetic acid DTNB […] RACEMIC DIHEPTANOYL THIO - PC […] TRITON X-100™ prepare at 6.249 mg/ml in reaction buffer to equal […]. REACTION MIXTURE A measured volume of racemic dipheptanoyl thio PC supplied in chloroform at a concentration of 100 mg/ml is taken to dryness and redissolved in 10 millimolar TRITON X-100™ nonionic detergent aqueous solution. Reaction Buffer is added to the solution, then DTNB to give the Reaction Mixture. The reaction mixture thus obtained contains 1 mM diheptanoly thio-PC substrate, 0.29 mM Triton X-100™ detergent, and 0.12 mM DTMB in a buffered aqueous solution at pH 7.5. Assay Procedure: 1. Add 0.2 ml reaction mixture to all wells; 2. Add 10 ul test compound (or solvent blank) to appropriate wells, mix 20 seconds; 3. Add 50 nanograms of sPLA2 (10 microliters) to appropriate wells; 4. Incubate plate at 40° C. for 30 minutes; […] Read absorbance of wells at 405 nanometers with an automatic plate reader. All compounds were tested in triplicate. Typically, compounds were tested at a final concentration of 5 ug/ml. […] Lack of color development at 405 nanometers evidenced inhibition. Compounds initially found to be active were reassayed to confirm their activity and, if sufficiently active, IC50 values were determined. […] In all cases, % inhibition measured at 405 nanometers generated by enzyme reactions containing inhibitors relative to the uninhibited control reactions was determined. Each sample was titrated in triplicate and result values were averaged for plotting and calculation of IC50 values. […] IC50 values were determined at least three times for each compound tested.

The next assay addresses T2, sPLA2 contraction (Homo sapiens, UniProt P14555).
T2 sequence (P14555 21-144): T1 sequence (P14555 21-144)
The experiment in a line: sPLA2-induced contraction of guinea pig lung pleural strips, tissue test (Assay Example 2). More on the design: species or system Male Hartley strain guinea pigs. The following applies: guinea pig, sPLA2 10 ug/ml; for inhibition at 30 µM: compound concentration 30 uM, read-out: % suppression of sPLA2 contraction at 30 uM. An excerpt:
Male Hartley strain guinea pigs (500-700 g) were killed by cervical dislocation and their heart and lungs removed intact and placed in aerated (95% O2 :5% CO2) Krebs buffer. Dorsal pleural strips (4×1×25 mm) were dissected from intact parenchymal segments (8×4×25 mm) cut parallel to the outer edge of the lower lung lobes. Two adjacent pleural strips, obtained from a single lobe and representing a single tissue sample, were tied at either end and independently attached to a metal support rod. One rod was attached to a Grass force-displacement transducer (Model FTO3C, product of Grass Medical Instruments Co., Quincy, Mass., USA). […] All tissues were placed in 10 ml jacketed tissue baths maintained at 37° C. The tissue baths were continuously aerated and contained a modified Krebs solution of the following composition (millimolar) NaCl, 118.2; KCl, 4.6; CaCl2.2H2 O, 2.5; MgSO4.7H2 O, 1.2; NaHCO3, 24.8; KH2 PO4, 1.0; and dextrose, 10.0. Pleural strips from the opposite lobes of the lung were used for paired experiments. […] The tissues were allowed to equilibrate for 45 min. as the bath fluid was changed periodically. Cumulative concentration-response curves: Initially tissues were challenged 3 times with KCl (40 mM) to test tissue viability and to obtain a consistent response. After recording the maximal response to KCl the tissues were washed and allowed to return to baseline before the next challenge. Cumulative concentration-response curves were obtained from pleural strips by increasing the agonist concentration (sPLA2) in the tissue bath by half-log10 increments while the previous concentration remained in contact with the tissues (Ref.1, supra.) Agonist concentration was increased after reaching the plateau of the contraction elicited by the preceding concentration. One concentration-response curve was obtained from each tissue. To minimize variability between tissues obtained from different animals, contractile responses were expressed as a percentage of the maximal response obtained with the final KCl challenge. When studying the effects of various drugs on the contractile effects of sPLA2, the compounds and their respective vehicles were added to the tissues 30 min. prior to starting the sPLA2 concentration-response curves. statistical analysis: Data from different experiments were pooled and presented as a percentage of the maximal KCl responses (mean±S.E.). To estimate the drug induced rightward shifts in the concentration response curves, the curves were analyzed simultaneously using statistical nonlinear modeling methods similar to those described by Waud (1976), Equation 26, p. 163, (Ref.2). The model includes four parameters: the maximum tissue response which was assumed the same for each curve, the ED50 for the control curve, the steepness of the curves, and the PA2, the concentration of antagonist that requires a two-fold increase in agonist to achieve an equivalent response. The Schild slope was determined to be 1, using statistical nonlinear modeling methods similar to those described by Waud (1976), Equation 27, p. 164 (Ref. 2). […] To estimate the drug-induced suppression of the maximal responses, sPLA2 responses (10 ug/ml) were determined in the absence and presence of drug, and percent suppression was calculated for each pair of tissues. Ref. 1--van Rossum, J. M.: Cumulative dose-response curves. II. Technique for the making of dose-response curves in isolated organs and the evaluation of drug parameters. Arch. Int. Pharmacodyn. Ther. 143: 299-330, 1963. Ref. 2--Waud, D.: Analysis of dose-response relationships. in Advances in General and Cellular Pharmacology […]

Bounds are passed on as bounds.

Usually IC50 stands for the concentration needed to halve the response being measured.

As to `COc1ccc2c(c1)c(CC(=O)NN)c(C)n2Cc1cccc(OCc2ccccc2)c1` [Example 30, 1-[(3-Benzyloxyphenyl)methyl]-5-methoxy-2-methyl-1H-indole-3-acetic acid hydrazide], the half-maximal inhibitory concentration (IC50) at human secreted PLA2 stood at 610 ± 220 nM. On sPLA2 contraction (compound concentration 10 uM, read-out: % suppression of sPLA2 contraction at 10 uM), the inhibition at 10 µM stood at 21.4%. The inhibition at 30 µM on sPLA2 contraction stood at 60.9 ± 9.7%.

Consider `CCc1c(CC(=O)NN)c2cc(OC)ccc2n1Cc1ccccc1-c1ccccc1` [Example 4, 1-([1,1'-biphenyl]-2-ylmethyl)-2-ethyl-5-methoxy-1H-indole-3-acetic acid hydrazide], for which, at human secreted PLA2, the IC50 came to 5170 ± 6710 nM. Further, the inhibition at 30 µM at sPLA2 contraction was determined as 11 ± 10.3%.

With `CCc1c(CC(=O)NN)c2cc(OC3CCCC3)ccc2n1Cc1ccccc1` [Example 2, 5-Cyclopentoxy-2-ethyl-1-(phenylmethyl)-1H-indole-3-acetic acid hydrazide], the 50% inhibitory concentration (IC50) on human secreted PLA2 worked out at 470 ± 150 nM. The inhibition at 30 µM on sPLA2 contraction was determined as 60.5 ± 12.8%.

Take `COc1ccc2c(c1)c(CC(=O)NN)c(C)n2Cc1ccccc1-c1ccccc1` [Example 24, 1-([1,1'-Biphenyl]-2-ylmethyl)-5-methoxy-2-methyl-1H-indole-3-acetic acid hydrazide]: the IC50 at human secreted PLA2 worked out at 260 ± 80 nM. Also, the inhibition at 30 µM on sPLA2 contraction was -4.2 ± 6.2%.

Take `CCCCCCCCCCCCCCCCCCn1c(C)c(CC(=O)NN)c2cc(OC)ccc21` [Example 15, 5-Methoxy-2-methyl-1-octadecyl-1H-indole-3-acetic acid hydrazide]: at human secreted PLA2, the concentration for half-maximal inhibition (IC50) was > 100000 nM.

On to “5-Methoxy-1-(phenylmethyl)-1H-indole-3-butanoic acid hydrazide [Example 66]”, for which the IC50 on human secreted PLA2 turned out to be 9960 ± 5610 nM.

`COc1ccc2c(c1)c(CC(=O)NN)c(C)n2Cc1ccncc1` [Example 39, 5-Methoxy-2-methyl-1-[(4-pyridyl)methyl]-1H-indole-3-acetic acid hydrazide]: at human secreted PLA2, the IC50 was 45900 ± 13100 nM.

Regarding `Cc1c(CC(=O)NN)c2cc(C(C)(C)C)ccc2n1Cc1ccccc1` [Example 60, 5-tert-Butyl-2-methyl-1-(phenylmethyl)-1H-indole-3-acetic acid hydrazide], the half-inhibitory concentration (IC50) at human secreted PLA2 was 1020 ± 350 nM.

Turning to `COc1ccc2c(c1)c(CC(=O)NN)c(C)n2Cc1cccc([N+](=O)[O-])c1` [Example 34, 5-Methoxy-2-methyl-1-[(3-nitrophenyl)methyl]-1H-indole-3-acetic acid hydrazide], the half-inhibitory concentration (IC50) at human secreted PLA2 came to 15200 ± 770 nM.

In the case of `COc1ccc2c(c1)c(CC(=O)NN)c(C)n2CCCc1ccccc1` [Example 41, 5-Methoxy-2-methyl-1-(3-phenylpropyl)-1H-indole-3-acetic acid hydrazide], the concentration for half-maximal inhibition (IC50) at human secreted PLA2 was found to be 16800 ± 2890 nM.

`COc1ccc2c(c1)c(CC(=O)NN)c(C)n2Cc1ccccn1` [Example 37, 5-Methoxy-2-methyl-1-[(2-pyridyl)methyl]-1H-indole-3-acetic acid hydrazide]: the half-maximal inhibitory concentration (IC50) on human secreted PLA2 turned out to be 27200 ± 7890 nM.

Regarding `Cc1c(CC(=O)NN)c2cc(Cl)ccc2n1Cc1ccccc1` [Example 48, 5-Chloro-2-methyl-1-(phenylmethyl)-1H-indole-3-acetic acid hydrazide], the 50% inhibitory concentration (IC50) on human secreted PLA2 amounted to 740 ± 150 nM.

In the case of `CCCCCCCCCCOc1cccc(Cn2c(C)c(CC(=O)NN)c3cc(OC)ccc32)c1` [Example 29, 1-[(3-Decyloxyphenyl)methyl]-5-methoxy-2-methyl-1H-indole-3-acetic acid hydrazide], the IC50 on human secreted PLA2 is 840 ± 310 nM.

For the compound `Cc1c(CC(=O)NN)c2cc(Br)ccc2n1Cc1ccccc1` [Example 50, 5-Bromo-2-methyl-1-(phenylmethyl)-1H-indole-3-acetic acid hydrazide], at human secreted PLA2, the 50% inhibitory concentration (IC50) worked out at 1020 ± 430 nM.

As for `Cc1c(CC(=O)NN)c2cc(-c3ccccc3)ccc2n1Cc1ccccc1` [Example 56, 2-Methyl-5-phenyl-1-(phenylmethyl)-1H-indole-3-acetic acid hydrazide], the IC50 on human secreted PLA2 turned out to be 860 ± 200 nM.

Regarding `Cc1c(CC(=O)NN)c2cc(Cl)ccc2n1Cc1cccc(Cl)c1` [Example 49, 5-Chloro-[(3-chlorophenyl)methyl]-2-methyl-1H-indole-3-acetic acid hydrazide], on human secreted PLA2, the IC50 worked out at 1630 ± 740 nM.

In the case of `CCOc1ccc2c(c1)c(CC(=O)NN)c(C)n2Cc1ccccc1` [Example 1, 5-Ethoxy-2-methyl-1-(phenylmethyl)-1H-indole-3-acetic acid hydrazide], the IC50 on human secreted PLA2 was determined as 800 ± 250 nM.

For the compound `COc1ccc2c(c1)c(CC(=O)NN)c(C)n2Cc1cccnc1` [Example 38, 5-Methoxy-2-methyl-1-[(3-pyridyl)methyl]-1H-indole-3-acetic acid hydrazide], at human secreted PLA2, the IC50 was 84200 ± 19400 nM.

Regarding `COc1ccc2c(c1)c(CC(=O)NN)c([S+](C)[O-])n2Cc1ccccc1` (stereo not shown) [Example 46, 5-Methoxy-2-methylsulfinyl-1-(phenylmethyl)-1H-indole-3-acetic acid hydrazide], the IC50 at human secreted PLA2 was found to be 46000 ± 24700 nM.

Consider “5-Methoxy-2-methyl-1-(phenylmethyl)-1H-indole-3-propanoic acid hydrazide [Example 65]”, for which the half-maximal inhibitory concentration (IC50) at human secreted PLA2 was 32600 nM.

Take `Cc1c(CC(=O)NN)c2cc(Br)ccc2n1Cc1cccc(-c2ccccc2)c1` [Example 51, 1-([1,1'-biphenyl]-3-ylmethyl)-5-bromo-2-methyl-1H-indole-3-acetic acid hydrazide]: the IC50 on human secreted PLA2 turned out to be 1340 ± 440 nM.

As for `CCc1c(CC(=O)NN)c2cc(F)ccc2n1Cc1ccccc1` [Example 7, 2-Ethyl-5-fluoro-1-(phenylmethyl)-1H-indole-3-acetic acid hydrazide], at human secreted PLA2, the concentration for half-maximal inhibition (IC50) is 1520 ± 560 nM.

As to `NNC(=O)Cc1cn(Cc2ccccc2)c2ccc(OCc3ccccc3)cc12` [Example 9, 5-Benzyloxy-1-(phenylmethyl)-1H-indole-3-acetic acid hydrazide], at human secreted PLA2, the IC50 turned out to be 2310 ± 650 nM.

The record behind these values is US5578634A, “1H-indole-3-acetic acid hydrazide sPLA2 inhibitors” (Eli Lilly and Company, priority 1995, dated 1996).
